Drawing on patent publication US20070082883A1, “HIV protease inhibitors” (THE BOARD OF TRUSTEES OF THE UNIVERSITY OF ILLINOIS, priority 2002, published 2007), this text covers IC50 and Ki for 32 molecules.

Structures are written as SMILES. Bounds are passed on as bounds.

This assay addresses T1, HIV-1 protease (Human immunodeficiency virus type 1 group M subtype B, UniProt P04585).
T1 construct: made in house; host or cells: E. coli BL21 (dE3)pLysS, pET30a vector
Kind of assay: HIV-1 Protease Inhibition Assay. Type of assay: biochemical. To be noted: fluorogenic substrate assay. The source says:
Assays of the dose-response effect of inhibitor compounds can be described as a curve expressing a degree of inhibition as a function of concentration. The curve theoretically passes through a point at which the concentration is sufficient to reduce activity of the HIV protease enzyme to a level that is 50% that of the difference between minimal and maximal enzyme activity in the assay.
HIV-1 Protease Inhibition Assay
The HIV-1 protease gene was subcloned into the pET30a vector (Novagen) and then transformed into BL21 (dE3)pLysS cells for protein expression. Protein expression and purification were followed according to Tang's procedure (Hong et al., Biochemistry, 1996, 35, 10627-10633). […] The inclusion body containing some bacterial proteins was thoroughly washed by using TRITON X-100, solubilized in […] and passed through the Q-sepharose column to remove the bacterial proteins which interfered with subsequent refolding steps. HIV-1 protease was refolded from the urea to an active form by dialysis. As a final step, gel filtration chromatography was used to remove impurities after refolding. Activities of purified HIV-1 protease were examined using a fluorogenic substrate, 2-aminobenzoyl-Thr-Ile-Nle-Phe(pNO2)-Gln-Arg-NH2 (Novabiochem). […] In the condition of So<<Km, v=Eo(kcat/Km)So, where Eo is the total enzyme concentration, and So is the substrate concentrate. […] Assays are carried out as described by Toth and Marshall (Toth et al., Int. J. Pept. Protein Res., 1990, 36, 544-50).

Regarding `Cc1c(O)cccc1C(=O)N[C@@H](Cc1ccccc1)[C@H](O)CN(CC(C)C)S(=O)(=O)c1ccc(F)c(N)c1` [Compound 183], the IC50 was 179 nM and the Ki came out at 56 nM.
The like results for `CC(C)CN(C[C@@H](O)[C@H](Cc1ccccc1)NC(=O)O[C@@H]1CC2CCO[C@@H]2C1)NS(=O)(=O)c1ccc(F)c([N+](=O)[O-])c1` (some centres unmarked) [Compound 184] were, in that order, 1200 nM and 351 nM.
The like results for `COc1ccc(S(=O)(=O)NN(CC(C)C)C[C@@H](O)[C@H](Cc2ccccc2)NC(=O)O[C@H]2CO[C@H]3OCCC32)cc1` (some centres unmarked) [Compound 185] were, in that order, 312 nM and 97 nM.
`COc1ccc(S(=O)(=O)NN(CC(C)C)C[C@@H](O)[C@H](Cc2ccccc2)NC(=O)O[C@@H]2CC3CCO[C@@H]3C2)cc1` (some centres unmarked) [Compound 186] showed an IC50 of 10 nM and a Ki of 3.2 nM.
The like results for `COc1ccc(S(=O)(=O)N(C[C@@H](O)[C@H](Cc2ccccc2)NC(=O)OC(C)(C)C)NC(=O)OC(C)(C)C)cc1` [Compound 187] were, in that order, 534 nM and 166 nM.
The like results for `COc1ccc(S(=O)(=O)N(C[C@@H](O)[C@H](Cc2ccccc2)NC(=O)O[C@H]2CO[C@H]3OCCC32)NC(=O)OC(C)(C)C)cc1` (some centres unmarked) [Compound 188] were, in that order, 3.9 nM and 1.2 nM.
The like results for `COc1ccc(S(=O)(=O)N(N)C[C@@H](O)[C@H](Cc2ccccc2)NC(=O)O[C@H]2CO[C@H]3OCCC32)cc1` (some centres unmarked) [Compound 189] were, in that order, 55 nM and 17 nM.
Regarding `CC(C)(C)OC(=O)NN(C[C@@H](O)[C@H](Cc1ccccc1)NC(=O)O[C@H]1CO[C@H]2OCCC21)S(=O)(=O)c1ccc(F)c(N)c1` (some centres unmarked) [Compound 190], half-maximal inhibition (IC50) was put at 3.5 nM and affinity was put at a Ki of 1.1 nM.
`CC(C)(C)OC(=O)NN(C[C@@H](O)[C@H](Cc1ccccc1)NC(=O)O[C@@H]1CC2CCO[C@@H]2C1)S(=O)(=O)c1ccc(F)c(N)c1` (some centres unmarked) [Compound 191] showed an IC50 of 9.6 nM and a Ki of 3 nM.
`COc1ccc(S(=O)(=O)N(C[C@@H](O)[C@H](Cc2ccccc2)NC(=O)O[C@H]2CO[C@H]3OCCC32)C2CN(C(=O)OC(C)(C)C)C2)cc1` (some centres unmarked) [Compound 200]: half-maximal inhibition (IC50) required 7.6 nM and the Ki worked out at 2.3 nM.
The like results for `COc1ccc(S(=O)(=O)N(C[C@@H](O)[C@H](Cc2ccccc2)NC(=O)O[C@H]2CO[C@H]3OCCC32)C2CN(C)C2)cc1` (some centres unmarked) [Compound 201] were, in that order, 5.6 nM and 1.7 nM.
The like results for `COc1ccc(S(=O)(=O)N(C[C@@H](O)[C@H](Cc2ccccc2)NC(=O)O[C@@H]2CO[C@@H]3OCC[C@@H]32)C2CN(C)C2)cc1` [Compound 202] were, in that order, 31 nM and 9.7 nM.
`COc1ccc(S(=O)(=O)N(C[C@@H](O)[C@H](Cc2ccccc2)NC(=O)O[C@@H]2CC3CCO[C@@H]3C2)C2CN(C)C2)cc1` (some centres unmarked) [Compound 204] yielded an IC50 of 5.6 nM and a Ki of 1.7 nM.
The like results for `COc1ccc(S(=O)(=O)N(C[C@@H](O)[C@H](Cc2ccccc2)NC(=O)O[C@H]2C[C@H]3CCO[C@H]3C2)C2CN(C)C2)cc1` [Compound 205] were, in that order, 87 nM and 27 nM.
The like results for `COc1ccc(S(=O)(=O)N(C[C@@H](O)[C@H](Cc2ccccc2)NC(=O)O[C@H]2CCOC2)C2CN(C)C2)cc1` [Compound 206] were, in that order, 109 nM and 34 nM.
The like results for `COc1ccc(S(=O)(=O)N(CC(C)C)C[C@@H](O)[C@H](Cc2ccc(OCc3ccccc3)cc2)NC(=O)OC(C)(C)C)cc1` [Compound 207] were, in that order, 96 nM and 30 nM.
`COc1ccc(S(=O)(=O)N(CC(=O)[C@H](Cc2ccc(OCc3ccccc3)cc2)NC(=O)OC(C)(C)C)CC(C)C)cc1` [Compound 208] registered an IC50 of more than 2300 nM.
With `COc1ccc(S(=O)(=O)N(CC(C)C)C[C@H](O)[C@H](Cc2ccc(OCc3ccccc3)cc2)NC(=O)OC(C)(C)C)cc1` [Compound 209], the IC50 was found to be 30 nM and affinity was put at a Ki of 9.3 nM.
The like results for `COc1ccc(S(=O)(=O)N(CC(C)C)CC(O)C(Cc2ccc(OCc3ccccc3)cc2)NC(=O)OC(C)(C)C)cc1` (centres unmarked) [Compound 210] were, in that order, 13 nM and 4.1 nM.
The molecule `COc1ccc(S(=O)(=O)N(CC(C)C)C[C@H](O)[C@H](Cc2ccc(OCc3ccccc3)cc2)NC(=O)O[C@H]2CO[C@H]3OCCC32)cc1` (some centres unmarked) [Compound 211] yielded an IC50 of 90 nM and a Ki of 28 nM.
The like results for `COc1ccc(S(=O)(=O)N(CC(C)C)C[C@@H](O)[C@H](Cc2ccc(OCc3ccccc3)cc2)NC(=O)O[C@H]2CO[C@H]3OCCC32)cc1` (some centres unmarked) [Compound 212] were, in that order, 30 nM and 9.3 nM.
The like results for `COc1ccc(S(=O)(=O)N(CC(C)C)C[C@@H](O)[C@H](Cc2ccc(O)cc2)NC(=O)O[C@H]2CO[C@H]3OCCC32)cc1` (some centres unmarked) [Compound 213] were, in that order, 4.1 nM and 1.3 nM.
The like results for `C=CCCCCN(C[C@@H](O)[C@H](Cc1ccccc1)NC(=O)O[C@H]1CO[C@H]2OCCC21)S(=O)(=O)c1cccc(OCCCC=C)c1` (some centres unmarked) [Compound 225] were, in that order, 8.1 nM and 2.5 nM.
`O=C(N[C@@H](Cc1ccccc1)[C@H](O)CN1CCCC/C=C/CCCOc2cccc(c2)S1(=O)=O)O[C@H]1CO[C@H]2OCCC21` (some centres unmarked) [Compound 225a] gave an IC50 of 7.8 nM and a Ki of 2.4 nM.
With `O=C(N[C@@H](Cc1ccccc1)[C@H](O)CN1CCCCCCCCCOc2cccc(c2)S1(=O)=O)O[C@H]1CO[C@H]2OCCC21` (some centres unmarked) [Compound 225b], the IC50 was 7.8 nM and affinity was put at a Ki of 2.4 nM.
The like results for `C=CCCCCOc1cccc(S(=O)(=O)N(CCCCC=C)C[C@@H](O)[C@H](Cc2ccccc2)NC(=O)O[C@H]2CO[C@H]3OCCC32)c1` (some centres unmarked) [Compound 225c] were, in that order, 8.5 nM and 2.6 nM.
The like results for `C=CCCCCN(C[C@@H](O)[C@H](Cc1ccccc1)NC(=O)O[C@@H]1CC2CCO[C@@H]2C1)S(=O)(=O)c1cccc(OCC=C)c1` (some centres unmarked) [Compound 225f] were, in that order, 11 nM and 3.4 nM.
The like results for `O=C(N[C@@H](Cc1ccccc1)[C@H](O)CN1CCCC/C=C\COc2cccc(c2)S1(=O)=O)O[C@@H]1CC2CCO[C@@H]2C1` (some centres unmarked) [Compound 225g] were, in that order, 10 nM and 3.1 nM.
On to `O=C(N[C@@H](Cc1ccccc1)[C@H](O)CN1CCCCCCCOc2cccc(c2)S1(=O)=O)O[C@@H]1CC2CCO[C@@H]2C1` (some centres unmarked) [Compound 225h], for which the IC50 came out at 6.8 nM and the Ki was determined as 2.1 nM.
In turn, `C=CCCCCOc1cccc(S(=O)(=O)N(CCCCC=C)C[C@@H](O)[C@H](Cc2ccccc2)NC(=O)O[C@@H]2CC3CCO[C@@H]3C2)c1` (some centres unmarked) [Compound 225i] had an IC50 of 17 nM and a Ki of 5.3 nM.
With `C=CCCCCOc1ccccc1COC(=O)N(CCCC=C)C[C@@H](O)[C@H](Cc1ccccc1)NC(=O)O[C@@H]1CC2CCO[C@@H]2C1` (some centres unmarked) [Compound 226], the IC50 is more than 2000 nM.
In turn, `O=C(N[C@@H](Cc1ccccc1)[C@H](O)CN1CCC/C=C\CCCCOc2ccccc2COC1=O)O[C@@H]1CC2CCO[C@@H]2C1` (some centres unmarked) [Compound 227] had an IC50 of 495 nM and a Ki of 154 nM.
